Target: T1, histamine H4 receptor (Homo sapiens, UniProt Q9H3N8)
T1 construct: expressed in transfected cells; host or cells: HEK293SFM cells (membrane preparation)
Experiment: H4 Membrane Binding Assay (3H-Histamine displacement)
Settings: membranes of recombinant HEK293SFM cells, 10 nM 3H-Histamine, 1.5 hr at room temperature
Method in brief: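 Membranes from HEK293SFM cells expressing human H4 (also human H1–H3, mouse H4), prepared in ice-cold 50 mM Tris-HCl pH 7.5. [3H]-histamine displacement, nonspecific binding defined with 1000× unlabeled ligand. Bound radioactivity separated on PEI-treated GF/B filters and measured by liquid scintillation counting.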

Compound	IC50 [µM]
CN1CCN(c2cc(-c3ccc4c(c3)CN(C(=O)NC3(C)CCCCC3)CC4)nc(N)n2)CC1 [Example 47, 7-[2-Amino-6-(4-methylpiperazin-1-yl)pyrimidin-4-yl]-N-(1-methylcyclohexyl)-3,4-dihydroisoquinoline-2(1H)-carboxamide]	0.027
C[C@H](NC(=O)c1ccc2c(N3CCN(C)CC3)nc(N)nc2c1)c1ccc2ccccc2c1 [Example 22, (S)-2-Amino-4-(4-methylpiperazin-1-yl)-N-(1-(naphthalen-2-yl)ethyl)quinazoline-7-carboxamide]	0.128
CO[C@H]1CCCC[C@H]1NC(=O)N1CCc2ccc(-c3cc(N4CCN(C)CC4)nc(N)n3)cc2C1 (relative stereo) [Example 55, 7-[2-Amino-6-(4-methylpiperazin-1-yl)pyrimidin-4-yl]-N-(cis-2-methoxycyclohexyl)-3,4-dihydroisoquinoline-2(1H)-carboxamide]	0.12
CN1CCN(c2cc(-c3ccc4c(c3)CN(C(=O)Nc3nccs3)CC4)nc(N)n2)CC1 [Example 88, 7-[2-Amino-6-(4-methylpiperazin-1-yl)pyrimidin-4-yl]-N-1,3-thiazol-2-yl-3,4-dihydroisoquinoline-2(1H)-carboxamide]	0.135
CN1CCN(c2nc(N)nc3cc(C(=O)Nc4cccc(Cl)c4)ccc23)CC1 [Example 27, 2-Amino-N-(3-chlorophenyl)-4-(4-methylpiperazin-1-yl)quinazoline-7-carboxamide]	0.896
CN1CCN(c2cc(-c3ccc4c(c3)CN(C(=O)Nc3ccccc3F)CC4)nc(N)n2)CC1 [Example 99, 7-[2-Amino-6-(4-methylpiperazin-1-yl)pyrimidin-4-yl]-N-(2-fluorophenyl)-3,4-dihydroisoquinoline-2(1H)-carboxamide]	0.031
CN1CCN(c2cc(-c3ccc4c(c3)CNCC4)nc(N)n2)CC1 [Example 1, 4-(4-Methylpiperazin-1-yl)-6-(1,2,3,4-tetrahydroisoquinolin-7-yl)pyrimidin-2-amine]	0.198
CN1CCN(c2cc(-c3ccc4c(c3)CN(C(=O)Nc3ccc(Cl)cc3)CC4)nc(N)n2)CC1 [Example 8, 7-[2-Amino-6-(4-methylpiperazin-1-yl)pyrimidin-4-yl]-N-(4-chlorophenyl)-3,4-dihydroisoquinoline-2(1H)-carboxamide]	0.0132
COC(=O)c1ccc(NC(=O)N2CCc3ccc(-c4cc(N5CCN(C)CC5)nc(N)n4)cc3C2)nc1 [Example 45, Methyl 6-({[7-[2-amino-6-(4-methylpiperazin-1-yl)pyrimidin-4-yl]-3,4-dihydroisoquinolin-2(1H)-yl]carbonyl}amino)nicotinate]	0.06

The next lines start with the values.

IC50 [µM]	Compound
0.029	COC(=O)[C@H](Cc1ccc(OC(C)C)cc1)NC(=O)c1ccc2c(N3CCN(C)CC3)nc(N)nc2c1 [Example 134, Methyl (2S)-2-({[2-amino-4-(4-methylpiperazin-1-yl)quinazolin-7-yl]carbonyl}amino)-3-(4-isopropoxyphenyl)propanoate]
0.017	COc1cccc(COc2ccc3c(c2)C(NC(=O)c2ccc4c(N5CCN(C)CC5)nc(N)nc4c2)CCC3)c1 (stereo not shown) [Example 203, 2-Amino-N-(7-(3-methoxybenzyloxy)-1,2,3,4-tetrahydronaphthalen-1-yl)-4-(4-methylpiperazin-1-yl)quinazoline-7-carboxamide]
0.0072	COC(=O)c1ccc(COc2cccc(CNC(=O)c3ccc4c(N5CCN(C)CC5)nc(N)nc4c3)c2)cc1 [Example 193, Methyl 4-({3-[({[2-amino-4-(4-methylpiperazin-1-yl)quinazolin-7-yl]carbonyl}amino)methyl]phenoxy}methyl)benzoate]
0.045	CC(C)CC(=O)N1CCc2ccc(-c3cc(N4CCN(C)CC4)nc(N)n3)cc2C1 [Example 100, 4-[2-(3-Methylbutanoyl)-1,2,3,4-tetrahydroisoquinolin-7-yl]-6-(4-methylpiperazin-1-yl)pyrimidin-2-amine]
